# Reference: PubChem BioAssay AID743418 (The Scripps Research Institute Molecular Screening Center, 2014)
# Calls of active or inactive are those of the source. How the calls were made is not given here.
# Target: Sphingosine 1-phosphate receptor 2 (Homo sapiens) (UniProt O95136)
# Experiment: S1P2 receptor agonist activity, late-stage follow-up, counter-screen for S1PR3 antagonist project, cell-based, fluorescence, dose response (AID 743418)
# Settings: S1P2-expressing cells, agonist-mode fluorescence read-out
# Sphingosine 1-phosphate receptor 2 (Homo sapiens), sequence (O95136 whole entry, looked up): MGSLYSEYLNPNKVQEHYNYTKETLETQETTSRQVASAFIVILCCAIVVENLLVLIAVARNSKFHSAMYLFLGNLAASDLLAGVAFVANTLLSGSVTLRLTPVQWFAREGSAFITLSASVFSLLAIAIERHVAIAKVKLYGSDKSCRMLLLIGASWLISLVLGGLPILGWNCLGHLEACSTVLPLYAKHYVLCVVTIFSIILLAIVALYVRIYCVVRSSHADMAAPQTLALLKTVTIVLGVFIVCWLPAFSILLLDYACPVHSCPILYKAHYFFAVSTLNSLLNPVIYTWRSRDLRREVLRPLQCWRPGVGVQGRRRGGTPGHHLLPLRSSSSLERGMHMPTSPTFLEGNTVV
row,Compound,EC50
1,O=C(NC(c1ccccc1)c1nc(-c2ccccc2)no1)c1cccc(Cl)n1 (configuration not stated),> 50 µM (inactive)
2,O=C(NC(c1ccc(Cl)cc1)c1nc(-c2ccccc2)no1)c1cccc(Cl)c1 (configuration not stated),> 50 µM (inactive)
3,O=C(NC(c1ccc(Cl)cc1)c1nc(-c2ccccn2)no1)c1cccc(Cl)c1 (configuration not stated),> 50 µM (inactive)
4,O=C(NC(c1ccc(Cl)c(Cl)c1)c1nc(-c2ccccc2)no1)c1ccc(Cl)c(Cl)c1 (configuration not stated),> 50 µM (inactive)
5,CCc1ccc(C(NC(=O)c2cccc(Cl)c2)c2nc(-c3ccccc3)no2)cc1 (configuration not stated),> 50 µM (inactive)
6,O=C(NC(c1cccc(Cl)c1)c1nc(-c2ccccc2)no1)c1cccc(Cl)c1 (configuration not stated),> 50 µM (inactive)
7,COc1ccc(C(=O)NC(c2ccccc2)c2nc(-c3ccccc3)no2)cc1 (configuration not stated),> 50 µM (inactive)
8,O=C(NC(c1cccc(Cl)c1)c1nc(-c2ccccc2)no1)c1cc(Cl)cc(Cl)c1 (configuration not stated),> 50 µM (inactive)
9,N#Cc1ccc(C(=O)NC(c2ccc(Cl)c(Cl)c2)c2nc(-c3ccccc3)no2)cc1 (configuration not stated),> 50 µM (inactive)
10,O=C(NC(c1ccc(Cl)cc1)c1nc(-c2ccccc2)no1)c1ccc(Cl)c(Br)c1 (configuration not stated),> 50 µM (inactive)
11,O=C(NC(c1nc(-c2ccccc2)no1)C1CCCCC1)c1ccc(Cl)c(Cl)c1 (configuration not stated),> 50 µM (inactive)
12,Cc1ccc(C(=O)NC(c2ccccc2)c2nc(-c3ccccc3)no2)cc1 (configuration not stated),> 50 µM (inactive)
13,O=C(NC(c1ccc(Cl)c(Cl)c1)c1nc(-c2ccccc2)no1)c1cccc(Cl)c1 (configuration not stated),> 50 µM (inactive)
14,Cc1ccc(C(NC(=O)c2cccc(Cl)c2)c2nc(-c3ccccc3)no2)cc1 (configuration not stated),> 50 µM (inactive)
15,O=C(NC(c1ccc(Cl)cc1)c1nc(-c2ccccc2)no1)c1cccc(Br)c1 (configuration not stated),> 50 µM (inactive)
16,O=C(NC(c1ccccc1)c1nc(-c2ccccc2)no1)c1cccc(Cl)c1 (configuration not stated),> 50 µM (inactive)
17,O=C(NC(c1ccc(Br)cc1)c1nc(-c2ccccc2)no1)c1ccc(Cl)c(Cl)c1 (configuration not stated),> 50 µM (inactive)
18,O=C(NC(c1nc(-c2ccccc2)no1)C1CCOCC1)c1ccc(Cl)c(Cl)c1 (configuration not stated),> 50 µM (inactive)
19,O=C(NC(c1ccc(Cl)c(Cl)c1)c1nc(-c2ccccc2)no1)c1ccccc1 (configuration not stated),> 50 µM (inactive)
20,O=C(NC(c1ccccc1)c1nc(-c2ccccc2)no1)c1cccc(Br)c1 (configuration not stated),> 50 µM (inactive)
21,O=C(NC(c1ccc(Cl)c(Cl)c1)c1nc(-c2ccccc2)no1)c1ccc(Cl)cc1 (configuration not stated),> 50 µM (inactive)
22,O=C(NC(c1ccccc1)c1nc(-c2ccccc2)no1)c1ccc(Cl)cc1 (configuration not stated),> 50 µM (inactive)
23,O=C(NC(c1ccc(Cl)cc1)c1nc(-c2ccccc2)no1)c1ccc(Cl)c(Cl)c1 (configuration not stated),> 50 µM (inactive)
24,O=C(c1cccc(Cl)c1)N(CCO)C(c1ccc(Cl)c(Cl)c1)c1nc(-c2ccccc2)no1 (configuration not stated),> 50 µM (inactive)
25,O=C(NC(c1ccc(Cl)cc1)c1nc(-c2cccc(Cl)c2)no1)c1cccc(Cl)c1 (configuration not stated),> 50 µM (inactive)
26,O=C(NC(Cc1ccccc1)c1nc(-c2ccccc2)no1)c1cccc(Cl)c1 (configuration not stated),> 50 µM (inactive)
27,O=C(NC(c1cccc(Cl)c1)c1nc(-c2ccccc2)no1)c1ccc(Cl)c(Cl)c1 (configuration not stated),> 50 µM (inactive)
